In patent US12390441B2, “Immunomodulating o-het/aryl azalides” (Zoetis Services LLC, priority 2020, dated 2025):
Values joined by “and” are separate entries in the source; they are usually repeats but may differ in a detail not shown here. Equal values may be shown once.

Columns and labels:
Assay in all cases: Whole blood assay, LPS stimulation, MSD cytokine detection
TNF-α = type: cell-based; details: fresh whole bovine blood
Protocol: (§1) Compounds of the invention were evaluated against a positive control for their ability to inhibit LPS-induced IL-1p and TNF-α as an overall evaluation of relative potency and modulation of target pathways.
(§2) In the bovine whole blood in vitro screening assay the inhibition of TNFα as induced by stimulation by lipopolysaccharide (LPS) and as measured by half the maximal inhibitory concentration (IC50) is recognized as the primary biomarker of immunomodulation potency upon pretreatment with the compounds of the invention. IL-1β is a mediator of the inflammation response and is involved in a number of cellular activities including proliferation, differentiation and apoptosis. IL-1β is also released upon cellular stress or cytotoxicity or upon TLR stimulation. In the bovine whole blood assay the stimulation of IL-1β release upon increasing concentration of test compound is seen as a potential cellular toxicity signal as induced by the test compound. In order to estimate a therapeutic index from the in vitro assay a differential between the TNFα IC50 (immunomodulation potency) versus the perceived cellular toxicity concentration (IL-1β release or overstimulation) was utilized. […] As the in vitro assay index approaches 1 it is proposed that the balance between immunomodulation and cytotoxicity would be too narrow in order to achieve an efficacious dose in vivo.

IL-1β = type: cell-based, bovine; details: fresh whole bovine blood, LPS stimulation; drug concentration giving overstimulation (OS) of IL-1β
Protocol: as §1, §2

IL-6 = type: cell-based; details: fresh whole bovine blood

| Compound | IC50 (TNF-α) [µM] | IL-1ß OS of LPS (IL-1β) | IC50 (IL-6) |
| --- | --- | --- | --- |
| CC[C@H]1OC(=O)[C@H](C)[C@@H](O[C@H]2C[C@@](C)(OC)[C@@H](O)[C@H](C)O2)[C@H](C)[C@@H](O[C@@H]2O[C@H](C)C[C@H](N(C)C)[C@H]2Oc2ccc(F)cc2)[C@](C)(O)C[C@@H](C)CN(C)[C@H](C)[C@@H](O)[C@]1(C)O [Example A-23] | 5 | 6 µM | 50 µM |
| CC[C@H]1OC(=O)[C@H](C)[C@@H](O[C@H]2C[C@@](C)(OC)[C@@H](O)[C@H](C)O2)[C@H](C)[C@@H](O[C@@H]2O[C@H](C)C[C@H](N(C)C)[C@H]2Oc2ccc3ccncc3c2)[C@](C)(O)C[C@@H](C)CN(C)[C@H](C)[C@@H](O)[C@]1(C)O [Example A-24] | 19 | 40 µM | 24 µM |
| CC[C@H]1OC(=O)[C@H](C)[C@@H](O[C@H]2C[C@@](C)(OC)[C@@H](O)[C@H](C)O2)[C@H](C)[C@@H](O[C@@H]2O[C@H](C)C[C@H](N(C)C)[C@H]2Oc2ccc(F)c(C#N)c2)[C@](C)(O)C[C@@H](C)CN(C)[C@H](C)[C@@H](O)[C@]1(C)O [Example A-25] | 3 | 16 µM | 12 µM |
| CC[C@H]1OC(=O)[C@H](C)[C@@H](O[C@H]2C[C@@](C)(OC)[C@@H](O)[C@H](C)O2)[C@H](C)[C@@H](O[C@@H]2O[C@H](C)C[C@H](N(C)C)[C@H]2Oc2cnc3ccccc3c2)[C@](C)(O)C[C@@H](C)CN(C)[C@H](C)[C@@H](O)[C@]1(C)O [Example A-28] | 3 | 16 µM | 11 µM |
| CC[C@H]1OC(=O)[C@H](C)[C@@H](O[C@H]2C[C@@](C)(OC)[C@@H](O)[C@H](C)O2)[C@H](C)[C@@H](O[C@@H]2O[C@H](C)C[C@H](NC)[C@H]2Oc2cnc(Cl)cc2C)[C@](C)(O)C[C@@H](C)CN(C)[C@H](C)[C@@H](O)[C@]1(C)O [Example A-29] | 7 | 10 µM | 9 µM |
| CC[C@H]1OC(=O)[C@H](C)[C@@H](O[C@H]2C[C@@](C)(OC)[C@@H](O)[C@H](C)O2)[C@H](C)[C@@H](O[C@@H]2O[C@H](C)C[C@H](NC)[C@H]2Oc2ccc(OC)c(OC(C)C)c2)[C@](C)(O)C[C@@H](C)CN(C)[C@H](C)[C@@H](O)[C@]1(C)O [Example A-34] | 4 | >250 µM | 21 µM |
| CC[C@H]1OC(=O)[C@H](C)[C@@H](O[C@H]2C[C@@](C)(OC)[C@@H](O)[C@H](C)O2)[C@H](C)[C@@H](O[C@@H]2O[C@H](C)C[C@H](N(C)C)[C@H]2Oc2cc(OC)ccc2OC)[C@](C)(O)C[C@@H](C)CN(C)[C@H](C)[C@@H](O)[C@]1(C)O [Example A-35] | 4 | 40 µM | 11 µM |
| CC[C@H]1OC(=O)[C@H](C)[C@@H](O[C@H]2C[C@@](C)(OC)[C@@H](O)[C@H](C)O2)[C@H](C)[C@@H](O[C@@H]2O[C@H](C)C[C@H](NC)[C@H]2Oc2ccccc2C#N)[C@](C)(O)C[C@@H](C)CN(C)[C@H](C)[C@@H](O)[C@]1(C)O [Example A-36] | 13 | 100 µM | 13 µM |
| CC[C@H]1OC(=O)[C@H](C)[C@@H](O[C@H]2C[C@@](C)(OC)[C@@H](O)[C@H](C)O2)[C@H](C)[C@@H](O[C@@H]2O[C@H](C)C[C@H](NC)[C@H]2Oc2cccc(S(=O)(=O)CC)c2)[C@](C)(O)C[C@@H](C)CN(C)[C@H](C)[C@@H](O)[C@]1(C)O [Example A-41] | 5 | 16 µM | 19 µM |
| CC[C@H]1OC(=O)[C@H](C)[C@@H](O[C@H]2C[C@@](C)(OC)[C@@H](O)[C@H](C)O2)[C@H](C)[C@@H](O[C@@H]2O[C@H](C)C[C@H](N(C)C)[C@H]2Oc2cnc(Cl)cc2C)[C@](C)(O)C[C@@H](C)CN(C)[C@H](C)[C@@H](O)[C@]1(C)O [Example A-45] | 4 | 40 µM | 12 µM |
| CC[C@H]1OC(=O)[C@H](C)[C@@H](O)[C@H](C)[C@@H](O[C@@H]2O[C@H](C)C[C@H](N(C)C(=O)N(C)c3ccccc3)[C@H]2Oc2ccc(F)c(C(F)(F)F)c2)[C@](C)(O)C[C@@H](C)CN(C)[C@H](C)[C@@H](O)[C@]1(C)O [Example C-10] | 22 | 40 µM | – |
| CC[C@H]1OC(=O)[C@H](C)[C@@H](O)[C@H](C)[C@@H](O[C@@H]2O[C@H](C)C[C@H](N(C)C(=O)N(C)c3ncccn3)[C@H]2Oc2ccccc2)[C@](C)(O)C[C@@H](C)CN(C)[C@H](C)[C@@H](O)[C@]1(C)O [Example C-17] | 38 | 44 µM | 63 µM |
| CCCNC[C@]1(O)[C@H](C)O[C@@H](O[C@H]2[C@H](C)[C@@H](O[C@@H]3O[C@H](C)C[C@H](NC)[C@H]3Oc3ccc(OC)c(F)c3)[C@](C)(O)C[C@@H](C)CN[C@H](C)[C@@H](O)[C@](C)(O)[C@@H](CC)OC(=O)[C@@H]2C)C[C@@]1(C)OC [Example E-10] | 30 | 40 µM | – |
| CCCNC[C@]1(O)[C@H](C)O[C@@H](O[C@H]2[C@H](C)[C@@H](O[C@@H]3O[C@H](C)C[C@H](NC)[C@H]3Oc3cc(OC)c(OC)c(OC)c3)[C@](C)(O)C[C@@H](C)CN[C@H](C)[C@@H](O)[C@](C)(O)[C@@H](CC)OC(=O)[C@@H]2C)C[C@@]1(C)OC [Example E-11] | 70 | 250 µM | – |
| CCCNC[C@]1(O)[C@H](C)O[C@@H](O[C@H]2[C@H](C)[C@@H](O[C@@H]3O[C@H](C)C[C@H](NC)[C@H]3Oc3ccc(OCC)cc3)[C@](C)(O)C[C@@H](C)CN[C@H](C)[C@@H](O)[C@](C)(O)[C@@H](CC)OC(=O)[C@@H]2C)C[C@@]1(C)OC [Example E-12] | 40 | 40 µM | – |
| CCCNC[C@]1(O)[C@H](C)O[C@@H](O[C@H]2[C@H](C)[C@@H](O[C@@H]3O[C@H](C)C[C@H](N(C)C)[C@H]3Oc3cnc(OC)nc3)[C@](C)(O)C[C@@H](C)CN[C@H](C)[C@@H](O)[C@](C)(O)[C@@H](CC)OC(=O)[C@@H]2C)C[C@@]1(C)OC [Example E-27] | 65 | 100 µM | – |
| CCCNC[C@]1(O)[C@H](C)O[C@@H](O[C@H]2[C@H](C)[C@@H](O[C@@H]3O[C@H](C)C[C@H](N(C)C)[C@H]3Oc3ccc(OC)cc3)[C@](C)(O)C[C@@H](C)CN[C@H](C)[C@@H](O)[C@](C)(O)[C@@H](CC)OC(=O)[C@@H]2C)C[C@@]1(C)OC [Example E-43] | 16 | 40 µM | – |
| CCCNC[C@]1(O)[C@H](C)O[C@@H](O[C@H]2[C@H](C)[C@@H](O[C@@H]3O[C@H](C)C[C@H](N(C)C)[C@H]3Oc3ccc(F)cc3)[C@](C)(O)C[C@@H](C)CN[C@H](C)[C@@H](O)[C@](C)(O)[C@@H](CC)OC(=O)[C@@H]2C)C[C@@]1(C)OC [Example E-48] | 13 | 40 µM | – |
| CC[C@H]1OC(=O)[C@H](C)[C@@H](O[C@H]2C[C@@](C)(OC)[C@](O)(CNCC3CC3)[C@H](C)O2)[C@H](C)[C@@H](O[C@@H]2O[C@H](C)C[C@H](N(C)C)[C@H]2Oc2ccccc2)[C@](C)(O)C[C@@H](C)CN[C@H](C)[C@@H](O)[C@]1(C)O [Example E-87] | – | 16 µM and 26 µM | 18 µM and 19 µM |
| CCCNC[C@]1(O)[C@H](C)O[C@@H](O[C@H]2[C@H](C)[C@@H](O[C@@H]3O[C@H](C)C[C@H](NC)[C@H]3Oc3cccc(OC)c3)[C@](C)(O)C[C@@H](C)CN[C@H](C)[C@@H](O)[C@](C)(O)[C@@H](CC)OC(=O)[C@@H]2C)C[C@@]1(C)OC [Example E-94] | 30 | 40 µM | – |
| CC[C@H]1OC(=O)[C@H](C)[C@@H](O[C@H]2C[C@@](C)(OC)[C@](O)(CNC3CCC3)[C@H](C)O2)[C@H](C)[C@@H](O[C@@H]2O[C@H](C)C[C@H](NC)[C@H]2Oc2ccccc2)[C@](C)(O)C[C@@H](C)CN[C@H](C)[C@@H](O)[C@]1(C)O [Example E-126] | 14 | 40 µM | – |
| CC[C@H]1OC(=O)[C@H](C)[C@@H](O[C@H]2C[C@@](C)(OC)[C@](O)(CNCCN(C)C)[C@H](C)O2)[C@H](C)[C@@H](O[C@@H]2O[C@H](C)C[C@H](NC)[C@H]2Oc2ccccc2)[C@](C)(O)C[C@@H](C)CN[C@H](C)[C@@H](O)[C@]1(C)O [Example E-129] | 75 | 250 µM | – |
| CC[C@H]1OC(=O)[C@H](C)[C@@H](O[C@H]2C[C@@](C)(OC)[C@](O)(CNn3cccn3)[C@H](C)O2)[C@H](C)[C@@H](O[C@@H]2O[C@H](C)C[C@H](NC)[C@H]2Oc2ccccc2)[C@](C)(O)C[C@@H](C)CN[C@H](C)[C@@H](O)[C@]1(C)O [Example E-139] | 5 | 6 µM | – |
